The values that follow come from patent US20230072392A1, “NASAL SPRAY” (BREATHE BETTER LLC, priority 2021, published 2023).

SMILES strings stand for the structures.

The test system of data set [1] is individuals. Kind of data set: Long-term nasal use: rebound effect (rebound congestion). Format: in vivo, human. Particulars: oxymetazoline or salts at less than 0.050%, preferably 0.025%. An excerpt:
In an embodiment of the nasal spray composition, the nasal spray composition may include effective amounts of a decongestant or vasoconstrictor, such as oxymetazoline, or pharmaceutical acceptable salts thereof, such as oxymetazoline hydrochloride. In an illustrative embodiment, the effective amount of oxymetazoline or pharmaceutical acceptable salts thereof, is less than 0.050%, between less than 0.050% and 0.010%, and more preferably, 0.025% or about 0.025%. Oxymetazoline, a member of the imidazole group, binds and activates alpha-2 adrenergic receptors. Upon nasal administration, imidazole group compounds constrict the arterioles in the nose, resulting in decreasing congestion. Concentrations of oxymetazoline (0.050%) utilized in the over-the-counter sprays have been proven to return symptoms to a degree stronger than present initially upon discontinuation of the drug. This is called the rebound effect, or rebound congestion (rhinitis medicamentosa, chemical rhinitis, or nasal spray addiction). The rebound effect may occur in as early as 3 days of use, but typically occurs in 3-5 days and sometimes 5-7 days of use. […] As such, the nasal spray according to the present invention can be used for a time period greater than 5-7 days without the risk of suffering from any rebound effect. […]

Data set [2] deals with individuals. Particulars: oxymetazoline 0.050% in over-the-counter sprays, days of use; cited from earlier work.

In the case of `Cc1cc(C(C)(C)C)c(O)c(C)c1CC1=NCCN1` [oxymetazoline], the “effect on snoring or sleep apnea and rebound effect” value in data set [1] is recorded as “effective at reducing or minimizing snoring or sleep apnea while preventing the rebound effect”. Besides, in data set [2], the “rebound effect: earliest onset (may occur in as early as)” value is reported as 3 days, the “rebound effect: onset sometimes” value was 5 to 7 days and the “rebound effect: typical onset” value is 3 to 5 days.
